# Reference: BindingDB's records for doi:10.1016/j.chembiol.2016.11.011 (McMaster University, 2017)
# Molecular target: 2''-aminoglycoside nucleotidyltransferase (Pseudomonas aeruginosa (g-Proteobacteria))
# Assay: In Vitro ANT(2")-Ia Pyrophosphatase Assay
# Experimental: In vitro ANT(2")-Ia pyrophosphatase assays were performed as described previously (Cox et al., 2015; Hirsch et al., 2014), with minor modifications. To improve compound solubility, Tween 20 was added to a final concentration of 0.01% (v/v) and compounds were added at a final concentration of 2% (v/v) DMSO. The enzyme ([…] reaction volume) was incubated with compound for 10 min at 25 °C, prior to initiation of the reaction with nucleotide. All inhibitory assays were performed with kanamycin B kept at Km (Cox et al., 2015; Hirsch et al., 2014).
row,Compound,Ki [µM]
1,CS(=O)(=O)CCNCc1ccc(-c2ccc3ncnc(Nc4ccc(OCc5ccccc5)c(Cl)c4)c3c2)o1,60
2,[O-][S+]1CCN(Cc2ccc(-c3ccc4ncnc(Nc5ccc(OCc6ccccc6)c(Cl)c5)c4c3)o2)CC1 [(4-benzyloxy-3-chloro-phenyl)-{6-[5-(1-oxo-1lambda*4*-thiomorpholin-4-ylmethyl)-furan-2-yl]-quinazolin-4-yl}-amine],12.9
